# Assay results from patent publication US10041936B2, “Neuronal cells cultured on microparticles and methods of using same” (The Regents of the University of California, priority 2009, dated 2018).
# Test system: Rat hippocampal neurons
# Assay: Culture of hippocampal neurons on PLL-coated beads in media with mitotic inhibitor
# Format: cell-based
# Protocol: Borosilicate Glass Spheres (MO-SCI Specialty Products, Rolla, Mo.) were sterilized in an ethanol solution overnight, and dried under vacuum. Then the beads were incubated in a borate buffer solution for one hour, before being left in PLL solution overnight. Hippocampi were removed from embryonic day 18 (E18) rats and treated with trypsin for 20 min at 37° C., followed by washing and trituration. Dissociated cells were plated at 75,000 cells/cm^2 on poly-lysine-coated glass beads and cultured in neurobasal medium supplemented with 2 mM Glutamax, 2% FBS, and 2% B-27. Cells were transfected with Lipofectamine 2000 (Invitrogen) or they were infected with lenti virus after 5-15 days after dissociation and analyzed 2-14 days after infection.
# Rat hippocampal neurons were selected as model mammalian brain neurons. Following dissection at a late embryonic stage (E18), or early postnatal stage (P4), the neurons were dissociated and cultured on beads coated with poly-L-lysine (PLL) to enhance cell adhesion and to support maturation.(13, 14) The neurons were grown on the beads using standard techniques developed for conventional 2D cultures (Pautot et al., 2008). […] However, a small number of supporting glial cells, which contribute to neuronal development by stimulating neuron growth and maturation, were also present. […]
compound,measurement,setting,value
Nc1ccn([C@@H]2O[C@H](CO)[C@@H](O)[C@@H]2O)c(=O)n1 [araC],neuron outgrowth and branching,"araC added to the culture media, no conditioned media",slowed
same,growth of neurons on the beads,"araC combined with conditioned media from glial feeder cell cultures, more than 3 weeks",robust growth
